The values below come from patent US8143282B2, “Heterocyclic compounds” (S*BIO Pte Ltd., priority 2005, dated 2012).

Molecules are shown by their SMILES.

One test addresses T1, HDAC1 enzyme (Homo sapiens, UniProt Q13547).
T1 construct: Amplification of human HDAC1 coding region from this cDNA library was cloned separately into the baculovirus expression pDEST20 vector; made in house; host or cells: SF9 insect cells, pDEST20-HDAC1 baculovirus
Put plainly: In vitro HDAC assay for determination of IC50 values (BIOMOL fluorescent-based HDAC activity assay). Type of test: biochemical. As for the experimental part:
Human cDNA library was prepared using cultured SW620 cells. Amplification of human HDAC1 coding region from this cDNA library was cloned separately into the baculovirus expression pDEST20 vector (GATEWAY Cloning Technology, Invitrogen Pte Ltd). The pDEST20-HDAC1 construct was confirmed by DNA sequencing. Recombinant baculovirus was prepared using the Bac-To-Bac method following the manufacturer's instruction (Invitrogen Pte Ltd).
Expression of GST-HDAC1 was done by infecting SF9 cells (Invitrogen Pte Ltd) with pDEST20-HDAC1 baculovirus at MOI=1 for 48 h. Soluble cell lysate was incubated with pre-equilibrated Glutathione Sepharose 4B beads (Amersham) at 4° C. for 2 h. The beads were washed with PBS buffer for 3 times. The GST-HDAC1 protein was eluted by elution buffer containing 50 mM Tris, pH8.0, 150 mM NaCl, 1% Triton X-100 and 10 mM or 20 mM reduced Glutathione. The purified GST-HDAC1 protein was dialyzed with HDAC storage buffer containing 10 mM Tris, pH7.5, 100 mM NaCl and 3 mM MgCl2. 20% Glycerol was added to purified GST-HDAC1 protein before storage at −80° C.
The assay has been carried out in 96 well format and the BIOMOL fluorescent-based HDAC activity assay has been applied. […] Flur de lys Developer was added and the reaction was incubated for 10 min. Briefly, deacetylation of the substrate sensitizes it to the developer, which then generates a fluorophore. The fluorophore is excited with 360 nm light and the emitted light (460 nm) is detected on a fluorometric plate reader (Tecan Ultra Microplate detection system, Tecan Group Ltd.).
The analytical software, Prism 4.0 (GraphPad Software Inc) has been used to generate IC50 from a series of data.

The next test has as its system Colo205 cells. Put plainly: Cell-based proliferation assay for GI50 (CyQUANT), Colo205. As to conditions: Homo sapiens, COLO 205, 96 h treatment, read-out: Cellular or Growth Inhibition Activity in Colo205 cells, GI50. Here is the method: Human colon cancer cell lines (Colo205, HCT116), Ovarian cancer cell line (A2780), Hepatoma cell line (HEP3B), Prostate cancer cell line (PC3) were obtained from ATCC or ECACC. Colo205 cells were cultivated in RPMI 1640 containing 2 mM L-Glutamine, 5% FBS, 1.0 mM Na Pyruvate, 1 U/ml of penicillin and 1 μg of streptomycin. HCT116 cells were cultivated in McCoy's containing RPMI 1640 containing 2 mM L-Glutamine, 5% FBS, 1 U/ml of penicillin and 1 μg of streptomycin. A2780 cells were cultivated in RPMI 1640 containing 2 mM L-Glutamine, 5% FBS, 1 U/ml of penicillin and 1 μg of streptomycin. HEP3B cells were cultivated in EMEM containing 2 mM L-glutamine, 5% FBS, 1% non essential amino acid, 1 mM Na Pyruvate, 1 U/ml of penicillin and 1 μg of streptomycin. PC3 cells were cultivated in F12K, 2 mM L-glutamine, 5% FBS, 1 U/ml of penicillin and 1 μg of streptomycin. PC3, Colo205, and HCT116 cells were seeded in 96-wells plate at 1000, 5000 and 6000 cells per well respectively. A2780 and HEP3B cells were seeded in 96-wells plate at 4000 cells per well respectively. The plates were incubated at 37° C., 5% CO2, for 24 h. Cells were treated with compounds at various concentrations for 96 h. Cell growth was then monitored using CyQUANT® cell proliferation assay (Invitrogen Pte Ltd). Dose response curves were plotted to determine GI50 values for the compounds using XL-fit (ID Business Solution, Emeryville, Calif.). GI50 is defined as the concentration of compound required for 50% inhibition of cell growth.

T1 sequence (Q13547 whole entry): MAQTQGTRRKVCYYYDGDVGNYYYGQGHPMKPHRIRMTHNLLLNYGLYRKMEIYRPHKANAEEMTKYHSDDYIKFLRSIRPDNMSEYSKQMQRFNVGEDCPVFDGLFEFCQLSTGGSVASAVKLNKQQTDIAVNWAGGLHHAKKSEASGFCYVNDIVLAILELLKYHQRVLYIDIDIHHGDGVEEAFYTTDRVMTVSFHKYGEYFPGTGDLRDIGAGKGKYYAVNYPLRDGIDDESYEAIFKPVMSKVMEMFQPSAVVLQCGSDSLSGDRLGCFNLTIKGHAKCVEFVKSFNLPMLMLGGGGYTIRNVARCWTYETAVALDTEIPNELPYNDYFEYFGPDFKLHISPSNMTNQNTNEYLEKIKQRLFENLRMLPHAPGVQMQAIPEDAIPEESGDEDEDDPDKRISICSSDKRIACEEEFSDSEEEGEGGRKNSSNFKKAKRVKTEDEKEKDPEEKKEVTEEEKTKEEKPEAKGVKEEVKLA

In turn, `CC(Cc1nc2cc(/C=C/C(=O)NO)ccc2n1CCN(C(C)C)C(C)C)CC(C)(C)C` (centres unmarked) [Compound 38, 3-[1-(2-Diisopropylamino-ethyl)-2-(2,4,4-trimethyl-pentyl)-1H-benzoimidazol-5-yl]-N-hydroxy-acrylamide] displayed an IC50 at HDAC1 enzyme of 560 nM. Moreover, the 50% growth inhibitory concentration (GI50) with Colo205 cells is 1940 nM.
`CC(Cc1nc2cc(/C=C/C(=O)NO)ccc2n1CCNC(C)C)CC(C)(C)C` (centres unmarked) [Compound 39, N-Hydroxy-3-[1-(2-isopropylamino-ethyl)-2-(2,4,4-trimethyl-pentyl)-1H-benzoimidazol-5-yl]-acrylamide] had an IC50 against HDAC1 enzyme of 24 nM. In the test on Colo205 cells, the GI50 was 230 nM.
As to `CCN(CC)CCn1c(CC(C)CC(C)(C)C)nc2cc(/C=C/C(=O)NO)ccc21` (centres unmarked) [Compound 41, 3-[1-(2-Diethylamino-ethyl)-2-(2,4,4-trimethyl-pentyl)-1H-benzoimidazol-5-yl]-N-hydroxy-acrylamide], at HDAC1 enzyme, it took 62 nM to reach half-maximal inhibition (IC50). For the same compound, in the test with Colo205 cells, the concentration for 50% growth inhibition (GI50) was 920 nM.
As for `CCCc1nc2cc(/C=C/C(=O)NO)ccc2n1CCN(CC)CC` [Compound 42, 3-[1-(2-Diethylamino-ethyl)-2-propyl-1H-benzoimidazol-5-yl]-N-hydroxy-acrylamide], the half-inhibitory concentration (IC50) against HDAC1 enzyme was 150 nM. For the same compound, the 50% growth inhibitory concentration (GI50) with Colo205 cells was 980 nM.
`CCCCc1nc2cc(/C=C/C(=O)NO)ccc2n1CCN(C(C)C)C(C)C` [Compound 43, 3-[2-Butyl-1-(2-diisopropylamimo-ethyl)-1H-benzoimidazol-5-yl]-N-hydroxy-acrylamide]: at HDAC1 enzyme, half-maximal inhibition (IC50) was put at 330 nM. Moreover, the GI50 in the test with Colo205 cells came out at 1860 nM.
On to `CCN(CC)CCn1c(CCSC)nc2cc(/C=C/C(=O)NO)ccc21` [Compound 45, 3-[1-(2-Diethylamino-ethyl)-2-(2-methylsulfanyl-ethyl)-1H-benzoimidazol-5-yl]-N-hydroxy-acrylamide], for which, on HDAC1 enzyme, the IC50 was found to be 53 nM. Also, in the test on Colo205 cells, the 50% growth inhibitory concentration (GI50) was determined as 540 nM.
In turn, `CCCCc1nc2cc(/C=C/C(=O)NO)ccc2n1CCCNC(C)C` [Compound 47, 3-[2-Butyl-1-(3-isopropylamino-propyl)-1H-benzoimidazol-5-yl]-N-hydroxy-acrylamide] showed an IC50 against HDAC1 enzyme of 210 nM. In addition, in the test with Colo205 cells, the GI50 was determined as 3600 nM.
Regarding `CCCCc1nc2cc(/C=C/C(=O)NO)ccc2n1C1CCN(Cc2ccccc2)CC1` [Compound 48, 3-[1-(1-Benzyl-piperidin-4-yl)-2-butyl-1H-benzoimidazol-5-yl]-N-hydroxy-acrylamide], on HDAC1 enzyme, 430 nM corresponded to half-maximal inhibition (IC50). The GI50 in the test on Colo205 cells turned out to be 780 nM.
On to `C=CCCc1nc2cc(/C=C/C(=O)NO)ccc2n1CCNCC` [Compound 49, 3-[2-But-3-enyl-1-(2-ethylamino-ethyl)-1H-benzoimidazol-5-yl]-N-hydroxy-acrylamide], for which the 50% inhibitory concentration (IC50) against HDAC1 enzyme turned out to be 110 nM. The 50% growth inhibitory concentration (GI50) in the test with Colo205 cells came out at 1750 nM.
On HDAC1 enzyme, `CC(Cc1nc2cc(/C=C/C(=O)NO)ccc2n1CCN(C)C)CC(C)(C)C` (centres unmarked) [Compound 51, 3-[1-(2-Dimethylamino-ethyl)-2-(2,4,4-trimethyl-pentyl)-1H-benzoimidazol-5-yl]-N-hydroxy-acrylamide] displayed a concentration for half-maximal inhibition (IC50) of 66 nM. The GI50 in the test on Colo205 cells came out at 260 nM.
`CC(C)NCCn1c(CCC(F)(F)F)nc2cc(/C=C/C(=O)NO)ccc21` [Compound 53, N-Hydroxy-3-[1-(2-isopropylamino-ethyl)-2-(3,3,3-trifluoro-propyl)-1H-benzoimidazol-5-yl]-acrylamide] came in with an IC50 at HDAC1 enzyme of 100 nM. Moreover, the 50% growth inhibitory concentration (GI50) with Colo205 cells was 1050 nM.
At HDAC1 enzyme, `CC/C=C\CCc1nc2cc(/C=C/C(=O)NO)ccc2n1CCN(C)C` [Compound 54, 3-[1-(2-Dimethylamino-ethyl)-2-hex-3-enyl-1H-benzoimidazol-5-yl]-N-hydroxy-acrylamide] gave a concentration for half-maximal inhibition (IC50) of 48 nM. Moreover, the concentration for 50% growth inhibition (GI50) in the test with Colo205 cells came out at 460 nM.
For the compound `CC(Cc1nc2cc(/C=C/C(=O)NO)ccc2n1CCN)CC(C)(C)C` (centres unmarked) [Compound 55, 3-[1-(2-Amino-ethyl)-2-(2,4,4-trimethyl-pentyl)-1H-benzoimidazol-5-yl]-N-hydroxy-acrylamide], on HDAC1 enzyme, the IC50 came out at 37 nM. The GI50 with Colo205 cells amounted to 910 nM.
On the same counts, the results for `CCCCCCCC(Cc1nc2cc(/C=C/C(=O)NO)ccc2n1CCN)OC` (centres unmarked) [Compound 56, 3-[1-(2-Amino-ethyl)-2-(2-methoxy-nonyl)-1H-benzoimidazol-5-yl]-N-hydroxy-acrylamide] are 29 nM and 900 nM.
With `CCN(CC)CCn1c(CCNC(=O)CC(C)(C)C)nc2cc(/C=C/C(=O)NO)ccc21` [Compound 59, N-{2-[1-(2-Diethylamino-ethyl)-5-(2-hydroxycarbamoyl-vinyl)-1H-benzoimidazol-2-yl]-ethyl}-3,3-dimethyl-butyramide], 77 nM corresponded to half-maximal inhibition on HDAC1 enzyme (IC50). The GI50 in the test on Colo205 cells was 2280 nM.
`CCN(CC)CCn1c(CCNC(=O)C(C)(C)C)nc2cc(/C=C/C(=O)NO)ccc21` [Compound 60, 3-{1-(2-Diethylamino-ethyl)-2-[2-(2,2-dimethyl-propionylamino)-ethyl]-1H-benzoimidazol-5-yl}-N-hydroxy-acrylamide] had a half-inhibitory concentration (IC50) on HDAC1 enzyme of 100 nM. Also, the GI50 with Colo205 cells worked out at 2480 nM.
On HDAC1 enzyme, `CCN(CC)CCn1c(CNC(=O)C(C)(C)C)nc2cc(/C=C/C(=O)NO)ccc21` [Compound 61, 3-{1-(2-Diethylamino-ethyl)-2-[(2,2-dimethyl-propionylamino)-methyl]-1H-benzoimidazol-5-yl}-N-hydroxy-acrylamide] registered an IC50 of 70 nM. The GI50 in the test on Colo205 cells amounted to 1320 nM.
On HDAC1 enzyme, `CCCC(=O)NCc1nc2cc(/C=C/C(=O)NO)ccc2n1CCN(CC)CC` [Compound 62, N-[1-(2-Diethylamino-ethyl)-5-(2-hydroxycarbamoyl-vinyl)-1H-benzoimidazol-2-ylmethyl]-butyramide] registered a half-inhibitory concentration (IC50) of 54 nM. Also, the GI50 in the test on Colo205 cells came to 2600 nM.
In turn, `CN(C)CCn1c(CCC(C)(C)C)nc2cc(/C=C/C(=O)NO)ccc21` [Compound 64, 3-[2-(3,3-Dimethyl-butyl)-1-(2-Dimethylamino-ethyl)-1H-benzoimidazol-5-yl]-N-hydroxy-acrylamide] gave an IC50 against HDAC1 enzyme of 100 nM. Moreover, the 50% growth inhibitory concentration (GI50) with Colo205 cells worked out at 730 nM.
On to `CN(C)CCn1c(CC(F)(F)F)nc2cc(/C=C/C(=O)NO)ccc21` [Compound 66, 3-[1-(2-Dimethylamino-ethyl)-2-(2,2,2-trifluoro-ethyl)-1H-benzoimidazol-5-yl]-N-hydroxy-acrylamide], for which it took 340 nM to reach half-maximal inhibition on HDAC1 enzyme (IC50). For the same compound, the concentration for 50% growth inhibition (GI50) with Colo205 cells stood at 8800 nM.
Regarding `CCCCc1nc2cc(/C=C/C(=O)NO)ccc2n1C1CCNCC1` [Compound 70, 3-(2-Butyl-1-piperidin-4-yl-1H-benzoimidazol-5-yl)-N-hydroxy-acrylamide], at HDAC1 enzyme, the half-inhibitory concentration (IC50) turned out to be 68 nM. In addition, the concentration for 50% growth inhibition (GI50) in the test on Colo205 cells worked out at 7000 nM.
At HDAC1 enzyme, `CCCCC/C=C\CCc1nc2cc(/C=C/C(=O)NO)ccc2n1CCNC` [Compound 72, N-Hydroxy-3-[1-(2-methylamino-ethyl)-2-non-3-enyl-1H-benzoimidazol-5-yl]-acrylamide] gave a 50% inhibitory concentration (IC50) of 17 nM. Further, in the test on Colo205 cells, the concentration for 50% growth inhibition (GI50) was 160 nM.
The like results for `CC/C=C\CCCCCc1nc2cc(/C=C/C(=O)NO)ccc2n1CCNC` [Compound 73, N-Hydroxy-3-[1-(2-methylamino-ethyl)-2-non-6-enyl-1H-benzoimidazol-5-yl]-acrylamide] were, in that order, 26 nM and 230 nM.
The compound `CCCCCc1nc2cc(/C=C/C(=O)NO)ccc2n1CCNC` [Compound 75, N-Hydroxy-3-[1-(2-methylamino-ethyl)-2-pentyl-1H-benzoimidazol-5-yl]-acrylamide] registered a 50% inhibitory concentration (IC50) against HDAC1 enzyme of 50 nM. Besides, in the test on Colo205 cells, the concentration for 50% growth inhibition (GI50) turned out to be 1200 nM.
`CCCCCCCCc1nc2cc(/C=C/C(=O)NO)ccc2n1CCNC` [Compound 76, N-Hydroxy-3-[1-(2-methylamino-ethyl)-2-octyl-1H-benzoimidazol-5-yl]-acrylamide] showed an IC50 against HDAC1 enzyme of 18 nM. In addition, in the test with Colo205 cells, the 50% growth inhibitory concentration (GI50) worked out at 290 nM.

Broadly, the IC50 is the midpoint of a concentration-inhibition curve. Lower therefore signals higher potency. For orientation: GI50 means the concentration at which growth is held to half of that of the control.
